Here are results for two molecules from US8455549B2, “Carbonylamino derivatives useful for the treatment of certain inflammatory disorders” (Aniona Aps, priority 0207, dated 2013).

The subject of this test is DNBS-induced distal colitis. Kind of test: Inhibition of 2,4-Dinitrobenzenesulfonic Acid (DNBS)-induced distal colitis in rats. Type of test: in vivo, rat. Particulars: PO bid × 7, dose not specified. The method, then:
Test substances A and B were evaluated for possible inhibition of 2,4-Dinitrobenzenesulfonic Acid (DNBS)-induced distal colitis in rats, which is a model of inflammatory bowel disease. The test compounds were soluble in a mixture of Cremophore EL, PEG400 and distilled water (10:10:80). Test substance was administered orally (PO) twice daily for 7 consecutive days. The dosing volume used was 10 ml/kg for PO. For test of Compound A groups of 10 Wistar derived male rats (BioLasco Taiwan) weighing 200±10 g were used. For test of Compound B groups of 5 Wistar derived male rats (BioLasco Taiwan) weighing 210±5 g were used. […] During the experiment, faecal occult blood and stool consistency were monitored daily. […] Also, the presence of colonic ulceration after removal and weighing of each colon (a macroscopic damage score) was recorded. […] The colon-to-body weight ratio was calculated according to the formula: (A) Colon-to-Body weight ratio (Colon weight/100 g B. W.) for each rat in respective treatment groups (vehicle blank, vehicle+DNBS, Test substance+DNBS and positive reference agent+DNBS) (B) The Net Increase of Colon weight/100 g B. W. For “vehicle+DNBS”: [(vehicle+DNBS)−(vehicle blank)] mean value of colon-to-body weight ratio For “test substance+DNBS”: [(test substance+DNBS)−(vehicle blank)] mean value of colon-to-body weight ratio (C) The percent decrease of colon weight/100 g B. Wt. […]

For the molecule `CC(C)C(C(N)=O)(c1ccc(F)cc1)c1ccc(F)cc1` [Compound A, 2,2-Bis-(4-fluoro-phenyl)-3-methyl-butyramide], the “stool consistency, occult faecal blood and macroscopic damage (adhesion and ulcers) in the colon” value is recorded as “improved”.

`NC(=O)C(c1ccccc1)(c1ccc(F)cc1)c1ccc(F)cc1` [Compound B, 2,2-Bis-(4-fluoro-phenyl)-2-phenyl-acetamide]: the “stool consistency, occult faecal blood and macroscopic damage (adhesion and ulcers) in the colon” value is listed as “improved”.
